Data taken from ChEMBL document CHEMBL5344446, “Constituents from the Polar Extract of Pisolithus arhizus and Their Anti-inflammatory Activity” (J Nat Prod, 2024).
The source made the active and inactive calls. No cut-off for these calls is given here.

Columns and labels:
THP-1 [1] = assay: Cytotoxicity against PMA-differentiated human THP-1 cells assessed as reduction in cell viability at 25 to 100 ug/ml measured after 24 hrs by MTT assay; format: toxicity, cell-based; conditions: thp-1, 24 h, dose 25-100 µg/ml
THP-1 [2] = assay: Antiinflammatory activity in PMA-differentiated human THP-1 cells assessed as reduction in LPS-induced IL-6 secretion at 25 to 30 ug/ml pretreated with LPS for 3 hrs followed by compound addition and measured after 6 hrs by ELISA; format: functional, cell-based; conditions: dose 25-30 µg/ml
THP-1 [3] = assay: Downregulation of pSTAT3 protein expression in LPS-induced PMA-differentiated human THP-1 cells at […] pretreated with LPS for 3 hrs followed by compound addition and measured after 6 hrs by Western blot analysis; format: functional, cell-based; conditions: dose lower 25.0 mg/ml

**Q.** Which Activity (THP-1 [1]) does the source give for `O=C1O/C(=C(/C(=O)O)c2ccc(O)cc2)C(O)=C1c1ccc2c(O)c(O)cc(C3=C(O)/C(=C(\C(=O)O)c4ccc(O)cc4)OC3=O)c2c1` here?
**A.** Non-Toxic

**Q.** What about the Activity (THP-1 [2]) of the same molecule?
**A.** Active

**Q.** And the Activity (THP-1 [3])?
**A.** Active
